Measured values: patent publication US10941157B2, “Pesticidal compositions and uses thereof” (Gilead Apollo, LLC, priority 2015, dated 2021)
Converted amounts (≈) assume the structure as drawn.

What was measured:
Assay type in all cases: cell-based
[1] = system: Botrtyis cinerea (Bc); test: In vitro pathogen growth inhibition assay, Bc; conditions: 48 h, ≥90% inhibition; 48 hours vs 2% DMSO control; read-out: Compound Concentration (ppm) sufficient for ≥90% inhibition of growth, Bc
How it was run: (§1)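 Spores in 17% V8 liquid medium, or 1.5 mm Rs mycelial plugs in ¼ PDB, incubated with compound; final concentration checked by OD600 for precipitation. OD readings at 24 and 48 h, blank-subtracted, plus visual ratings; value is concentration giving ≥90% growth inhibition.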

[2] = system: Collectotrichum graminicola (Cg); test: In vitro pathogen growth inhibition assay, Cg; conditions: 48 h, ≥90% inhibition; 48 hours vs 2% DMSO control; read-out: Compound Concentration (ppm) sufficient for ≥90% inhibition of growth, Cg
How it was run: as §1

[3] = system: Diplodia maydis (Dm); test: In vitro pathogen growth inhibition assay, Dm; conditions: Stenocarpella maydis, 48 h, ≥90% inhibition; 48 hours vs 2% DMSO control; read-out: Compound Concentration (ppm) sufficient for ≥90% inhibition of growth, Dm
How it was run: (§2)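 Spores of Dm, Fv and Pc were diluted in 17% V8 liquid medium; Rs used 1.5 mm mycelial plugs in ¼ PDB. Compounds from 2.5 mg/ml DMSO stocks were combined with inoculum, growth was read by OD600 at 24 and 48 h with blank subtraction, and the reported value is the concentration giving ≥90% inhibition.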

[4] = system: Fusarium moniliforme (Fm); test: In vitro pathogen growth inhibition assay, Fm; conditions: Fusarium verticillioides; ≥90% inhibition; 48 hours vs 2% DMSO control; read-out: Compound Concentration (ppm) sufficient for ≥90% inhibition of growth, Fm
How it was run: as §1

[5] = system: Fusarium virguliforme (Fv); test: In vitro pathogen growth inhibition assay, Fv; conditions: ≥90% inhibition, 48 hours vs 2% DMSO control, read-out: Compound Concentration (ppm) sufficient for ≥90% inhibition of growth, Fv
How it was run: as §2

[6] = system: Phytophthora capsici (Pc); test: In vitro pathogen growth inhibition assay, Pc; conditions: 48 h, ≥90% inhibition, 48 hours vs 2% DMSO control, read-out: Compound Concentration (ppm) sufficient for ≥90% inhibition of growth, Pc
How it was run: as §2

[7] = system: Rhizoctonia solani (Rs); test: In vitro pathogen growth inhibition assay, Rs (mycelial plugs); conditions: Rhizoctonia solani, 48 h, ≥90% inhibition; mycelial plugs; 48 hours vs 2% DMSO control; read-out: Compound Concentration (ppm) sufficient for ≥90% inhibition of growth, Rs
How it was run: as §2

[8] = system: Septoria tritici (St); test: In vitro pathogen growth inhibition assay, St; conditions: Zymoseptoria tritici, 48 h, ≥90% inhibition; 48 hours vs 2% DMSO control; read-out: Compound Concentration (ppm) sufficient for ≥90% inhibition of growth, St
How it was run: as §1

[9] = system: Saccharomyces cerevisiae (Sc); test: Yeast growth inhibition assay; conditions: Saccharomyces cerevisiae, ≥75% inhibition, read-out: Compound Concentration (ppm) sufficient for ≥75% inhibition, Sc
Description: Both tables list the concentration of each compound that was sufficient to ≥90% inhibition of growth for each of the fungal pathogens listed above. In addition, some of compounds were tested in a yeast growth inhibition assay for Saccharomyces cerevisiae (Sc). Table 2 lists the concentration of the tested compound that was sufficient to ≥75% inhibition of Saccharomyces cerevisiae (Sc).

IC90 [1] [µg/mL]	IC90 [2] [µg/mL]	IC90 [3] [µg/mL]	IC90 [4] [µg/mL]	IC90 [5] [µg/mL]	IC90 [6] [µg/mL]	IC90 [7] [µg/mL]	IC90 [8] [µg/mL]	Compound	IC75 [9] [µg/mL]
2 (≈ 3.33 µM)	50 (≈ 83.2 µM)	10 (≈ 16.6 µM)	0.4 (≈ 0.666 µM)	2 (≈ 3.33 µM)	> 50	50 (≈ 83.2 µM)	> 10	COc1ccc(F)cc1[C@H](Cn1c(=O)n(C(C)(C)C(N)=O)c(=O)c2c(C)c(-c3ncco3)sc21)O[C@H]1CC[C@@H](O)CC1 [Compound I-103]	1.2 (≈ 2 µM)
2 (≈ 3.25 µM)	> 50	10 (≈ 16.3 µM)	0.4 (≈ 0.651 µM)	10 (≈ 16.3 µM)	> 10	10 (≈ 16.3 µM)	> 50	COc1ccc(F)cc1[C@H](Cn1c(=O)n(C(C)(C)C(N)=O)c(=O)c2c(C)c(-c3ncco3)sc21)OCC1CCC(O)CC1 (stereo partly drawn) [Compound I-104]	11 (≈ 17.9 µM)
2 (≈ 3.29 µM)	50 (≈ 82.1 µM)	10 (≈ 16.4 µM)	0.4 (≈ 0.657 µM)	10 (≈ 16.4 µM)	> 50	> 50	> 50	CCNC(=O)C(C)(C)n1c(=O)c2c(C)c(-c3ncco3)sc2n(C[C@H](OC2CCC(=O)CC2)c2ccccc2OC)c1=O [Compound I-105]	1.2 (≈ 1.97 µM)
2 (≈ 3.08 µM)	10 (≈ 15.4 µM)	2 (≈ 3.08 µM)	0.4 (≈ 0.617 µM)	2 (≈ 3.08 µM)	> 50	50 (≈ 77.1 µM)	> 50	COc1ccccc1[C@H](Cn1c(=O)n(C(C)(C)C(=O)N2CCCCC2)c(=O)c2c(C)c(-c3ncco3)sc21)OC1CCC(=O)CC1 [Compound I-106]	33.3 (≈ 51.3 µM)
0.4 (≈ 0.595 µM)	> 50	≥ 0.4	0.4 (≈ 0.595 µM)	> 50	> 50	> 50	> 50	COc1ccccc1[C@H](Cn1c(=O)n(C(C)(C)C(=O)OCc2ccccc2)c(=O)c2c(C)c(-c3ncco3)sc21)OC1CCC(=O)CC1 [Compound I-107]	> 33.3
2 (≈ 3.57 µM)	10 (≈ 17.9 µM)	10 (≈ 17.9 µM)	0.4 (≈ 0.715 µM)	2 (≈ 3.57 µM)	> 50	50 (≈ 89.3 µM)	> 50	CCNC(=O)C(C)(C)n1c(=O)c2c(C)c(C(=O)OCC)sc2n(C[C@H](OC(C)C)c2ccccc2OC)c1=O [Compound I-108]	11.1 (≈ 19.8 µM)
0.4 (≈ 0.665 µM)	10 (≈ 16.6 µM)	2 (≈ 3.32 µM)	0.4 (≈ 0.665 µM)	10 (≈ 16.6 µM)	> 50	50 (≈ 83.1 µM)	> 50	CCOC(=O)c1sc2c(c1C)c(=O)n(C(C)(C)C(=O)N1CCOCC1)c(=O)n2C[C@H](OC(C)C)c1ccccc1OC [Compound I-109]	11.1 (≈ 18.4 µM)

Further lines, the compound ahead of its results:

Compound	IC90 [1] [µg/mL]	IC90 [2] [µg/mL]	IC90 [3] [µg/mL]	IC90 [4] [µg/mL]	IC90 [5] [µg/mL]	IC90 [6] [µg/mL]	IC90 [7] [µg/mL]	IC90 [8] [µg/mL]	IC75 [9] [µg/mL]
CCOC(=O)c1sc2c(c1C)c(=O)n(C(C)(C)C(=O)N1CCCC1)c(=O)n2C[C@H](OC(C)C)c1ccccc1OC [Compound I-007]	0.4 (≈ 0.683 µM)	0.4 (≈ 0.683 µM)	0.4 (≈ 0.683 µM)	0.08 (≈ 0.137 µM)	0.4 (≈ 0.683 µM)	> 50	0.08 (≈ 0.137 µM)	≥ 2	0.4 (≈ 0.683 µM)
CCOC(=O)c1sc2c(c1C)c(=O)n(C(C)(C)C(=O)NC(C)C)c(=O)n2C[C@H](OC1CCOCC1)c1ccccc1OC [Compound I-008]	0.4 (≈ 0.65 µM)	2 (≈ 3.25 µM)	2 (≈ 3.25 µM)	0.08 (≈ 0.13 µM)	2 (≈ 3.25 µM)	> 50	10 (≈ 16.2 µM)	> 10	3.7 (≈ 6.01 µM)
CCOC(=O)c1sc2c(c1C)c(=O)n(C(C)(C)C(=O)NC(C)C)c(=O)n2C[C@H](OC(C)C)c1ccccc1OC [Compound I-009]	0.4 (≈ 0.697 µM)	2 (≈ 3.49 µM)	0.4 (≈ 0.697 µM)	0.08 (≈ 0.139 µM)	0.4 (≈ 0.697 µM)	> 50	10 (≈ 17.4 µM)	> 50	3.7 (≈ 6.45 µM)
CCNC(=O)C(C)(C)n1c(=O)c2c(C)c(-c3ncco3)sc2n(C[C@H](O[C@H]2CC[C@@H](O)CC2)c2ccccc2OC)c1=O [Compound I-010]	0.4 (≈ 0.655 µM)	50 (≈ 81.9 µM)	≥ 2	0.08 (≈ 0.131 µM)	2 (≈ 3.27 µM)	> 50	50 (≈ 81.9 µM)	> 50	0.4 (≈ 0.655 µM)
COc1ccccc1[C@H](Cn1c(=O)n(C(C)(C)C(=O)NC(C)C)c(=O)c2c(C)c(-c3ncco3)sc21)OC1CCOCC1 [Compound I-011]	0.4 (≈ 0.655 µM)	2 (≈ 3.27 µM)	2 (≈ 3.27 µM)	0.08 (≈ 0.131 µM)	2 (≈ 3.27 µM)	> 50	10 (≈ 16.4 µM)	50 (≈ 81.9 µM)	1.2 (≈ 1.96 µM)
COc1ccccc1[C@H](Cn1c(=O)n(C(C)(C)C(=O)NC(C)C)c(=O)c2c(C)c(-c3ncco3)sc21)O[C@H]1CC[C@@H](O)CC1 [Compound I-012]	0.4 (≈ 0.64 µM)	10 (≈ 16 µM)	2 (≈ 3.2 µM)	0.08 (≈ 0.128 µM)	2 (≈ 3.2 µM)	> 50	50 (≈ 80 µM)	≥ 10	0.14 (≈ 0.224 µM)
COc1ccccc1[C@H](Cn1c(=O)n(C(C)(C)C(=O)NC(C)C)c(=O)c2c(C)c(-c3ncco3)sc21)OC1CCC(=O)CC1 [Compound I-013]	0.4 (≈ 0.642 µM)	10 (≈ 16.1 µM)	0.4 (≈ 0.642 µM)	0.08 (≈ 0.128 µM)	2 (≈ 3.21 µM)	> 50	10 (≈ 16.1 µM)	≥ 10	0.14 (≈ 0.225 µM)
COc1ccccc1[C@H](Cn1c(=O)n(C(C)(C)C(=O)NC2CCC2)c(=O)c2c(C)c(-c3ncco3)sc21)OC(C)C [Compound I-098]	2 (≈ 3.44 µM)	10 (≈ 17.2 µM)	2 (≈ 3.44 µM)	0.4 (≈ 0.689 µM)	10 (≈ 17.2 µM)	> 50	10 (≈ 17.2 µM)	> 50	11 (≈ 18.9 µM)
COc1ccccc1[C@H](Cn1c(=O)n(C(C)(C)C(=O)NC2CCC2)c(=O)c2c(C)c(-c3ncco3)sc21)OC1CCOCC1 [Compound I-099]	10 (≈ 16.1 µM)	50 (≈ 80.3 µM)	10 (≈ 16.1 µM)	0.4 (≈ 0.642 µM)	50 (≈ 80.3 µM)	> 50	50 (≈ 80.3 µM)	> 50	33 (≈ 53 µM)
COc1ccccc1[C@H](Cn1c(=O)n(C(C)(C)C(N)=O)c(=O)c2c(C)c(-c3ncco3)sc21)O[C@H]1CC[C@@H](O)CC1 [Compound I-100]	2 (≈ 3.43 µM)	50 (≈ 85.8 µM)	2 (≈ 3.43 µM)	0.4 (≈ 0.686 µM)	10 (≈ 17.2 µM)	> 50	50 (≈ 85.8 µM)	≥ 50	1.2 (≈ 2.06 µM)
COc1ccc(F)cc1[C@H](Cn1c(=O)n(C(C)(C)C(N)=O)c(=O)c2c(C)c(-c3ncco3)sc21)OC1CCOCC1 [Compound I-101]	10 (≈ 17 µM)	10 (≈ 17 µM)	10 (≈ 17 µM)	0.4 (≈ 0.682 µM)	10 (≈ 17 µM)	50 (≈ 85.2 µM)	50 (≈ 85.2 µM)	> 50	3.7 (≈ 6.31 µM)
COc1ccc(F)cc1[C@H](Cn1c(=O)n(C(C)(C)C(N)=O)c(=O)c2c(C)c(-n3nccn3)sc21)OC1CCOCC1 [Compound I-102]	2 (≈ 3.41 µM)	2 (≈ 3.41 µM)	2 (≈ 3.41 µM)	0.4 (≈ 0.682 µM)	2 (≈ 3.41 µM)	10 (≈ 17 µM)	≥ 2	≥ 50	1.2 (≈ 2.05 µM)
